Key:
human CB2 receptors = human CB2 receptors (Homo sapiens (Human), UniProt P34972); assay: functional cAMP assay, CB2; format: cell-based; settings: CHO cells expressing human CB2
Procedure: (§1) The growth medium was exchanged with Krebs Ringer Bicarbonate buffer with 1 mM IBMX and incubated at 30° C. for 30 min. Compounds were added to a final assay volume of 100 μl and incubated for 30 min at 30° C. Using the cAMP-Nano-TRF detection kit the assay (Roche Diagnostics) was stopped by the addition of 50 μl lysis reagent (Tris, NaCl, 1.5% Triton X100, 2.5% NP40, 10% NaN3) and 50 μl detection solutions (20 μM mAb Alexa700-cAMP 1:1, and 48 μM Ruthenium-2-AHA-cAMP) and shaken for 2 h at room temperature. The time-resolved energy transfer is measured by a TRF reader (Evotec Technologies GmbH), equipped with a ND:YAG laser as excitation source. The plate is measured twice with the excitation at 355 nm and at the emission with a delay of 100 ns and a gate of 100 ns, total exposure time 10 s at 730 (bandwidth 30 nm) or 645 nm (bandwidth 75 nm), respectively.
(§2) EC50 values were determined using Activity Base analysis (ID Business Solution, Limited).

human CB1 receptors = human CB1 receptors (Homo sapiens (Human), UniProt P21554); assay: functional cAMP assay, CB1; format: cell-based; settings: CHO cells expressing human CB1
Sequence of human CB1 receptors (P21554 whole entry): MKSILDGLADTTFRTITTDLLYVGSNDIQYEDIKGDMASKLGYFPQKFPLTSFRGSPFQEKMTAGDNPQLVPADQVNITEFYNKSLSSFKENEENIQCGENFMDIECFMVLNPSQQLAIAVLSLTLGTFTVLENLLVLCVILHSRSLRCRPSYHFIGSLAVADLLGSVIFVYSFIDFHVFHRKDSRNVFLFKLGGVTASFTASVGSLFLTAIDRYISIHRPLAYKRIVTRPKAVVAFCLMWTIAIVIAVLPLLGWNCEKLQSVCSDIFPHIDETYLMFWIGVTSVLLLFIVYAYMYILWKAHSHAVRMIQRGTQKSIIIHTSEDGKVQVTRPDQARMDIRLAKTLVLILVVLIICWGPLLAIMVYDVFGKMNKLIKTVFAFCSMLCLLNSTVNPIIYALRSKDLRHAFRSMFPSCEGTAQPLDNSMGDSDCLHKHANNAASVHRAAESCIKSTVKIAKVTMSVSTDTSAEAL
Procedure: as §1, §2

Sequence of human CB2 receptors (P34972 whole entry): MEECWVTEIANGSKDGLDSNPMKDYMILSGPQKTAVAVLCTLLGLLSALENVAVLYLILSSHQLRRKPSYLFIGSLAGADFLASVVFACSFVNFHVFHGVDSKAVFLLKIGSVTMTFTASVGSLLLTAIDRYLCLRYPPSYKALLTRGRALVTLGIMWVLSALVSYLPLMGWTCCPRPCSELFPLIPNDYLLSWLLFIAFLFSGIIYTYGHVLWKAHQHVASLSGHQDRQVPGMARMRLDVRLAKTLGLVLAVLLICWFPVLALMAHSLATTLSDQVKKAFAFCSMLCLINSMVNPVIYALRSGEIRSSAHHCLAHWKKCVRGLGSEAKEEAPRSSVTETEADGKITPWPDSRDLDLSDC

Row | Structure (SMILES) | EC50 (human CB2 receptors) [nM] | EC50 (human CB1 receptors) [nM]
1 | CC(C)(C)c1nc(N2CC(F)(F)C(F)(F)C2)c2ncn(Cc3ccccc3C(F)(F)F)c2n1 [Example 105, 2-tert-butyl-6-(3,3,4,4-tetrafluoropyrrolidin-1-yl)-9-[[2-(trifluoromethyl)phenyl]methyl]purine] | 8.9 | > 10000
2 | CC(C)n1nnnc1Cn1cnc2c(N3CC[C@H](O)C3)nc(C(C)(C)C)nc21 [Example 155, (3S)-1-[2-tert-butyl-9-[(1-propan-2-yltetrazol-5-yl)methyl]purin-6-yl]pyrrolidin-3-ol] | 82.3 | > 10000
3 | CC1(O)CCN(c2nc(NC(C)(C)C)nc3c2ncn3Cc2c[nH]nc2C(F)(F)F)C1 (stereo not drawn) [Example 136, 1-[2-(tert-butylamino)-9-[[3-(trifluoromethyl)-1H-pyrazol-4-yl]methyl]purin-6-yl]-3-methylpyrrolidin-3-ol] | 150 | > 10000
4 | COCCn1cnc2c(N3CCC4(COC4)C3)nc(C(C)(C)C)nc21 [Example 63, 7-[2-tert-butyl-9-(2-methoxyethyl)purin-6-yl]-2-oxa-7-azaspiro[3.4]octane] | 661 | > 10000
5 | CC(C)(C)COc1nc(N2CCC(F)(F)C2)c2ncn(Cc3ccccc3C(F)(F)F)c2n1 [Example 125, 6-(3,3-difluoropyrrolidin-1-yl)-2-(2,2-dimethylpropoxy)-9-[[2-(trifluoromethyl)phenyl]methyl]purine] | 2.6 | > 10000
6 | Cc1noc(Cn2cnc3c(N4CC[C@H](O)C4)nc(C(C)(C)C)nc32)n1 [Example 101, (3S)-1-[2-tert-butyl-9-[(3-methyl-1,2,4-oxadiazol-5-yl)methyl]purin-6-yl]pyrrolidin-3-ol] | 370 | > 10000
7 | CC(C)(C)COc1nc(N2CCC(C)(O)C2)c2ncn(Cc3ncccc3Cl)c2n1 (stereo not drawn) [Example 134, 1-[9-[(3-chloropyridin-2-yl)methyl]-2-(2,2-dimethylpropoxy)purin-6-yl]-3-methylpyrrolidin-3-ol] | 178 | > 10000
8 | CC1(O)CCN(c2nc(C(C)(C)C)nc3c2ncn3Cc2ccccc2Cl)C1 (stereo not drawn) [Example 64, 1-[2-tert-butyl-9-[(2-chlorophenyl)methyl]purin-6-yl]-3-methylpyrrolidin-3-ol] | 13.4 | > 10000
9 | CC(C)(C)c1nc(N2CCC(F)(F)C2)c2ncn(C3CS(=O)(=O)C3)c2n1 [Example 27, 3-[2-tert-butyl-6-(3,3-difluoropyrrolidin-1-yl)purin-9-yl]thietane 1,1-dioxide] | 14.1 | > 10000
10 | CC(C)(C)c1nc(N2CC[C@H](O)C2)c2ncn(Cc3ccccc3S(C)(=O)=O)c2n1 [Example 90, (3S)-1-[2-tert-butyl-9-[(2-methylsulfonylphenyl)methyl]purin-6-yl]pyrrolidin-3-ol] | 7.9 | > 10000
11 | CC(C)(C)c1nc(N2CCC(F)(F)C2)c2ncn(CC3CCCCC3)c2n1 [Example 8, 2-tert-butyl-9-(cyclohexylmethyl)-6-(3,3-difluoropyrrolidin-1-yl)purine] | 75.3 | > 10000
12 | Cc1nonc1Cn1cnc2c(N3CCC(F)(F)C3)nc(C(C)(C)C)nc21 [Example 16, 3-[[2-tert-butyl-6-(3,3-difluoropyrrolidin-1-yl)purin-9-yl]methyl]-4-methyl-1,2,5-oxadiazole] | 6 | > 10000
13 | Cc1nonc1Cn1cnc2c(N3CCSC3)nc(C(C)(C)C)nc21 [Example 150, 3-[[2-tert-butyl-6-(1,3-thiazolidin-3-yl)purin-9-yl]methyl]-4-methyl-1,2,5-oxadiazole] | 10.5 | > 10000
14 | CC(C)(C)c1nc(N2CCC(O)C2)c2ncn(Cc3ccccc3C(F)(F)F)c2n1 (stereo not drawn) [Example 28, 1-[2-tert-butyl-9-[[2-(trifluoromethyl)phenyl]methyl]purin-6-yl]pyrrolidin-3-ol] | 1 | > 10000
15 | CC1(O)CCN(c2nc(C(C)(C)C)nc3c2ncn3Cc2ccccc2S(C)(=O)=O)C1 (stereo not drawn) [Example 74, 1-[2-tert-butyl-9-[(2-methylsulfonylphenyl)methyl]purin-6-yl]-3-methylpyrrolidin-3-ol] | 88.4 | > 10000
16 | CC(C)(C)c1nc(N2CCC[C@@H]2CO)c2ncn(Cc3ncccc3Cl)c2n1 [Example 157, [(2R)-1-[2-tert-Butyl-9-[(3-chloropyridin-2-yl)methyl]purin-6-yl]pyrrolidin-2-yl]methanol] | 4.3 | > 10000
17 | CC(C)(C)c1nc(N2CCC(O)C2)c2ncn(CC(=O)c3ccccc3Cl)c2n1 (stereo not drawn) [Example 47, 2-[2-tert-butyl-6-(3-hydroxypyrrolidin-1-yl)purin-9-yl]-1-(2-chlorophenyl)ethanone] | 102 | > 10000

Row | Structure (SMILES) | EC50 (human CB2 receptors) [nM] | EC50 (human CB1 receptors) [nM]
18 | CC1(O)CCN(c2nc(C(C)(C)C)nc3c2ncn3Cc2cccnc2Cl)C1 (stereo not drawn) [Example 68, 1-[2-tert-butyl-9-[(2-chloropyridin-3-yl)methyl]purin-6-yl]-3-methylpyrrolidin-3-ol] | 24.8 | > 10000
19 | Cc1noc(Cn2cnc3c(N4CCC(F)(F)C4)nc(C(C)(C)C)nc32)n1 [Example 7, 5-[[2-tert-butyl-6-(3,3-difluoropyrrolidin-1-yl)purin-9-yl]methyl]-3-methyl-1,2,4-oxadiazole] | 34.7 | > 10000
20 | Cc1nonc1Cn1cnc2c(N3CCC(C)(O)C3)nc(NC(C)(C)C)nc21 (stereo not drawn) [Example 123, 1-[2-(tert-butylamino)-9-[(4-methyl-1,2,5-oxadiazol-3-yl)methyl]purin-6-yl]-3-methylpyrrolidin-3-ol] | 563 | > 10000
21 | CC(C)(C)c1nc(N2CCC3(COC3)C2)c2ncn(CCC(F)(F)F)c2n1 [Example 89, 7-[2-tert-butyl-9-(3,3,3-trifluoropropyl)purin-6-yl]-2-oxa-7-azaspiro[3.4]octane] | 573 | > 10000
22 | COc1ccc(Cn2cnc3c(N4CCC(O)C4)nc(C(C)(C)C)nc32)cc1 (stereo not drawn) [Example 31, 1-[2-tert-butyl-9-[(4-methoxyphenyl)methyl]purin-6-yl]pyrrolidin-3-ol] | 21.4 | > 10000
23 | Cc1nonc1Cn1cnc2c(N3CC[C@H](O)C3)nc(NC(C)(C)C)nc21 [Example 119, (3S)-1-[2-(tert-butylamino)-9-[(4-methyl-1,2,5-oxadiazol-3-yl)methyl]purin-6-yl]pyrrolidin-3-ol] | 149 | > 10000
24 | Cn1nnnc1Cn1cnc2c(N3CCC(F)(F)C3)nc(C(C)(C)C)nc21 [Example 14, 2-tert-butyl-6-(3,3-difluoropyrrolidin-1-yl)-9-[(1-methyltetrazol-5-yl)methyl]purine] | 23 | > 10000
25 | CC(C)(C)COc1nc(N2CCC(F)(F)C2)c2ncn(Cc3ccccc3S(C)(=O)=O)c2n1 [Example 126, 6-(3,3-difluoropyrrolidin-1-yl)-2-(2,2-dimethylpropoxy)-9-[(2-methylsulfonylphenyl)methyl]purine] | 24.5 | > 10000
26 | CC(C)(C)c1nc(N2CCC3(COC3)C2)c2ncn(Cc3ncccc3Cl)c2n1 [Example 104, 7-[2-tert-butyl-9-[(3-chloropyridin-2-yl)methyl]purin-6-yl]-2-oxa-7-azaspiro[3.4]octane] | 160 | > 10000
27 | CCCn1nnnc1Cn1cnc2c(N3CC[C@H](O)C3)nc(C(C)(C)C)nc21 [Example 158, (3S)-1-[2-tert-butyl-9-[(1-propyltetrazol-5-yl)methyl]purin-6-yl]pyrrolidin-3-ol] | 61.6 | > 10000
28 | CC(=O)N[C@H]1CCN(c2nc(C(C)(C)C)nc3c2ncn3Cc2c[nH]nc2C(F)(F)F)C1 [Example 75, N—[(S)-1-[2-tert-butyl-9-[[3-(trifluoromethyl)-1H-pyrazol-4-yl]methyl]purin-6-yl]pyrrolidin-3-yl]acetamide] | 280 | > 10000
29 | CC(C)(C)COc1nc(N2CC3(COC3)C2)c2ncn(Cc3ccccc3Cl)c2n1 [Example 143, 6-[9-[(2-chlorophenyl)methyl]-2-(2,2-dimethylpropoxy)purin-6-yl]-2-oxa-6-azaspiro[3.3]heptane] | 268 | > 10000
30 | Cc1nonc1Cn1cnc2c(N3CCC[C@@H]3CO)nc(C(C)(C)C)nc21 [Example 145, [(2R)-1-[2-tert-butyl-9-[(4-methyl-1,2,5-oxadiazol-3-yl)methyl]purin-6-yl]pyrrolidin-2-yl]methanol] | 6.1 | > 10000
31 | CC(C)(C)c1nc(N2CCC3(COC3)C2)c2ncn(Cc3n[nH]cc3C(F)(F)F)c2n1 [Example 78, 7-[2-tert-butyl-9-[[4-(trifluoromethyl)-1H-pyrazol-3-yl]methyl]purin-6-yl]-2-oxa-7-azaspiro[3.4]octane] | 17.5 | > 10000
32 | CC(C)(C)c1nc(N2CC(F)(F)C(F)(F)C2)c2ncn(CCC(F)(F)F)c2n1 [Example 93, 2-tert-butyl-6-(3,3,4,4-tetrafluoropyrrolidin-1-yl)-9-(3,3,3-trifluoropropyl)purine] | 89.8 | > 10000
33 | CC(C)(C)Nc1nc(N2CC3(COC3)C2)c2ncn(CCC(F)(F)F)c2n1 [Example 142, N-tert-butyl-6-(2-oxa-6-azaspiro[3.3]heptan-6-yl)-9-(3,3,3-trifluoropropyl)purin-2-amine] | 681 | > 10000

From patent publication US9505762B2, “Purine derivatives as CB2 receptor agonists” (Hoffmann-La Roche Inc., priority 2013, dated 2016)
